According to patent publication US8304452B2, “Radical scavenger and active oxygen eliminating agent” (InBiotex Inc., priority 2005, dated 2012):

Test system: galactosemic cataract model
Assay: Galactosemic cataract model, eye drops (Example 4)
Assay type: in vivo, Crj:CD(SD) IGS rats
Design: key to Pathological findings of lens: Cataract / Pathological findings of lens: Vacuolation of lens epithelium / Pathological findings of lens: Alignment irregularity of lens cortical fiber / Pathological findings of lens: Vacuole structure in outer cortex: −: no change; ±: very slight change; +: slight change; 2+: medium change; 3+: significant change
Conditions: for severity of cataract (Cotlier standard score): four times per day, n=10, mean±standard deviation; for Pathological findings of lens: Alignment irregularity of lens cortical fiber / Pathological findings of lens: Cataract / Pathological findings of lens: Vacuolation of lens epithelium / Pathological findings of lens: Vacuole structure in outer cortex: eye balls resected 28 days later; for cases with severe sugar cataract: until day 28 of eye dropping
Method: 352 mg of a test substance was weighed and then dissolved in 1.1 mL of 1N NaOH (1 mol/L sodium hydroxide; manufactured by Wako Pure Chemical, Co., Ltd.). After dissolution, it was verified with a pH paper (Duotest under trade name; MACHEREY-NAGEL) that the pH was within an acceptable range (5 to 8). Subsequently, the resulting solution was divided in each volume of 0.03 mL into 30 2-ml tubes (28 such tubes for four tests per day for 7 days+2 such tubes for spare). These were immediately frozen in liquid nitrogen, and stored under freezing (preset at −85° C. within an acceptable range of −90 to −75° C.)/dark conditions. The solutions under storage were defined as stock solution at 320 mg/mL. The stock solutions could be used within 8 days after the preparation. The stock solutions outside the 8-day period after the preparation were disposed. Before eye dropping, the following preparation was done. After the tubes of the stock solution at 320 mg/mL were back to ambient temperature, 0.93 mL of physiological saline was directly added to the tubes for dilution. After preparative dilution, it was verified with a pH paper that the pH of the diluted solutions were within an acceptable range (5 to 8). The resulting eye drop was defined as 1.0% eye drop for use in administration. 0.09 mL of the 1.0% eye drop was divided in a 2-mL tube, to which 0.81 mL of physiological saline was directly added for dilution. Subsequently, it was verified with a pH paper that the pH of the diluted solution was within an acceptable range (5 to 8). The resulting eye drop was defined as 0.1% eye drop, for use in administration. Herein, eye drops of pH outside the acceptable range were never used. The 1.0% eye drop and the 0.1% eye drop practically used for administration were at pH 5.2 to 8.0 and pH 6.2 to 7.4, respectively. As the medium, physiological saline as the control substance was used as it was. Male Crj:CD(SD) IGS rats (SPF) of age 3 weeks were subjected to a 5-day quarantine period and then to an 8-day acclimatization period. By the random extraction method, the rats were grouped in 3 groups, where each group consisted of 10 rats, in a manner such that the average body weight and deviation in each group might be almost equal. After grouping, the rats were fed ad libitum with a powdery feed containing galactose at 50% [a powder feed (Lot No. 050107) of a mixture at equal amounts of CRF-1 powder feed (Lot No. 041104; manufacturer: Oriental Yeast Co., Ltd.) and galactose (D-galactose, Lot No. QYG0223, manufacturer: Yoneyama Pharmaceutical Industry, Co. Ltd.); the mixture was prepared by Oriental Yeast Co., Ltd.; abbreviated as {galactose feed}] hereinafter], as placed in a powder feeder. Additionally, the rats were fed ad libitum with drinking water. The three groups were defined as (A) medium control group, (B) 0.1% 5-S-GAD eye drop group, and (C) 1.0% 5-S-GAD eye drop group for dosing. The administration route was eye dropping as a clinically prospective route. The number of eye dropping per day was four times, while the interval between eye droppings was about 2 hours. The eye dropping was done around 9:30 am (9:00 am to 10:00 am as the defined time period), around 11:30 (11:00 am to 12:00 am as the defined time period), around 13:30 (13:00 pm to 14:00 pm as the defined time period) and around 15:30 pm (15:00 pm to 16:00 pm as the defined time period). Eye dropping was done over 28 days. On day 1, day 7, day 14, day 21 and day 28, ophthalmologic examinations were done about 30 minutes after each last eye dropping. The observation method is as follows. Right eye with eye drop application and left eye without any treatment were observed of their lenses, using a slit lamp (SL-15, Kowa Company, Ltd.). The severity of cataract was evaluated, according to the Cotlier standard (see FIG. 1 in Arch Ophthalmol., (67) 476-82, 1962, which was entitled ‘Development of galactose cataract in the rat, showing biomicroscopic front and slit view’). […]

NCCC(=O)N[C@@H](Cc1cc(O)c(O)c(SC[C@H](NC(=O)CC[C@H](N)C(=O)O)C(=O)NCC(=O)O)c1)C(=O)O [5-S-GAD, N-β-alanyl-5-S-glutathionyl-3,4-dihydroxyphenylalanine]
abnormality of general states (0.1% and 1.0% eye drop groups, before eye dropping and about one hour after the last eye dropping during the eye dropping period): no abnormality of their general states was observed | severity of cataract (Cotlier standard score) (0.1% eye drop, on day 1): 0 ± 0 | severity of cataract (Cotlier standard score) (0.1% eye drop, on day 7): 1.9 ± 0.1 | severity of cataract (Cotlier standard score) (0.1% eye drop, on day 14): 2.5 ± 0.1 | severity of cataract (Cotlier standard score) (0.1% eye drop, on day 21): 3.6 ± 0.1 | severity of cataract (Cotlier standard score) (0.1% eye drop, on day 28): 3.9 ± 0.1 | Pathological findings of lens: Alignment irregularity of lens cortical fiber (0.1% eye drop): + | Pathological findings of lens: Cataract (0.1% eye drop): 2+ | Pathological findings of lens: Vacuolation of lens epithelium (0.1% eye drop): ± | Pathological findings of lens: Vacuole structure in outer cortex (0.1% eye drop): ± | cases with severe sugar cataract (0.1% eye drop): no case with severe sugar cataract occurred until day 28 | severity of cataract (Cotlier standard score) (1.0% eye drop, on day 1): 0 ± 0 | severity of cataract (Cotlier standard score) (1.0% eye drop, on day 7): 1.8 ± 0.1 | severity of cataract (Cotlier standard score) (1.0% eye drop, on day 14): 2.4 ± 0.1 | severity of cataract (Cotlier standard score) (1.0% eye drop, on day 21): 3.4 ± 0.1 | severity of cataract (Cotlier standard score) (1.0% eye drop, on day 28): 3.8 ± 0.1 | Pathological findings of lens: Alignment irregularity of lens cortical fiber (1.0% eye drop): + | Pathological findings of lens: Cataract (1.0% eye drop): 2+ | Pathological findings of lens: Vacuolation of lens epithelium (1.0% eye drop): − | Pathological findings of lens: Vacuole structure in outer cortex (1.0% eye drop): ± | cases with severe sugar cataract (1.0% eye drop): No case with severe sugar cataract emerged until day 28 | pathological effect in the galactosemic rat cataract model (in words) (pathological findings, day 28): apparent ameliorating effect pathologically
